Test results published in paper PMC12238837, “DCAF16‐Based Covalent Molecular Glues for Targeted Protein Degradation of Histone Deacetylases” (Archiv Der Pharmazie, 2025).
Like-named read-outs stand apart in the source and are kept apart here.

Tests used:
HDAC1 [1] = target: T1, HDAC1 (Homo sapiens, UniProt Q13547); assay: HDAC1 degradation, western blot in MM.1S cells; assay type: cell-based; design: endogenous in cells; host or cells: MM.1S; conditions: 24 h
Protocol: First, the multiple myeloma cell line MM.1S was treated with varying concentrations (1, 10, and 25 µM) of degraders 10a–d for 6 and 24 h, respectively. HDAC1 and HDAC6 were selected for investigation due to their critical roles in various diseases such as cancer. HDAC1 and HDAC6 protein levels were subsequently evaluated using western blot analysis. […] This limited efficacy could be due to insufficient incubation time of the compounds with MM.1S cells. […] All compounds still exerted no degradation of HDAC6 at different concentrations after 24 h of treatment. However, different from 10b–d, degrader 10a, which contains a hydroxamic acid as ZBG, achieved substantial degradation of HDAC1 with a maximal degradation (D max) value of 74% at 25 μM. Consequently, Compound 10a was selected for further biological evaluations based on the initial screening results.
(§1) The MM.1S was obtained from ATCC (Manassas, VA, USA). MM.1S cells were cultivated in RPMI 1640 medium supplemented with 10% FBS, 100 IU/mL penicillin, 0.1 mg/mL streptomycin, and 1 mM sodium pyruvate at 37°C in a 5% CO2 atmosphere.
(§2) The MM.1S cells (3 × 10^6 cells/mL) were seeded into cell culture flasks and, after 72 h, treated with the indicated concentration of compound or DMSO for the given time. Cell lysis was performed with Cell Extraction Buffer and the addition of Halt Protease Inhibitor Cocktail and phenylmethanesulfonyl fluoride. Protein content was determined by Pierce BCA Protein Assay Kit. Samples were denatured by Laemmli 2× Concentrate, and Precision Plus Protein Unstained Standard was used as a molecular weight marker in all cases. SDS‐PAGE was performed with 10% Mini‐PROTEAN TGX Stain‐Free Gel (Catalog# 458035, Bio‐Rad, Hercules, CA, USA) at 200 V for 50 min (Catalog# 458035, Bio‐Rad). Afterwards, proteins were transferred with the Trans‐Blot Turbo Transfer System to Immobilon‐FL PVDF membranes at 1.0 A for 30 min and incubated with 5% milk‐powder solution for 1 h at room temperature under slight agitation. […] The ChemiDoc XRS+ System was used for detection, and Image Lab Software 6.1 (Bio‐Rad, Hercules, CA, USA) for quantification.

HDAC2 [2] = target: T2, HDAC2 (Homo sapiens, UniProt Q92769); assay: HDAC2 degradation, western blot in MM.1S cells; assay type: cell-based; design: endogenous in cells; host or cells: MM.1S
T2 sequence (Q92769 whole entry, the tested form may be a part, canonical isoform): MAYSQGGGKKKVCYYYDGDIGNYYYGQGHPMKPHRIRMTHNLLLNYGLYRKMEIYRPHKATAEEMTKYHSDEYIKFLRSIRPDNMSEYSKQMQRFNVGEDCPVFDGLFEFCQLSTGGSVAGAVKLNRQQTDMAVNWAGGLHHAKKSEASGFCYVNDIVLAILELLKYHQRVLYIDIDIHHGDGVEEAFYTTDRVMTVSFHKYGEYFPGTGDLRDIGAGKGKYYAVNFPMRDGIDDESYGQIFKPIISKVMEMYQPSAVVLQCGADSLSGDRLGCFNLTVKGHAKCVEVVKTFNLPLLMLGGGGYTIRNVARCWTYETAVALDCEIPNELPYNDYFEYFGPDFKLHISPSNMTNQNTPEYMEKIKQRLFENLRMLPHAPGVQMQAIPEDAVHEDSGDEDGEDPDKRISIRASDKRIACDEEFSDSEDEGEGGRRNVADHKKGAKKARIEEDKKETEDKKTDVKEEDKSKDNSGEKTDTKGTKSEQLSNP
Protocol: (§3) Subsequently, degrader 10a was investigated at various concentrations (1, 10, and 25 µM) for degradation effects on different HDAC isoforms, including HDAC2, HDAC3, and HDAC4. […] In detail, 10a induced a modest degradation of HDAC2 (D max = 46% at 25 μM), which may be attributed to the high structural similarity between HDAC1 and HDAC2, particularly in their catalytic domains.
as §1, §2

HDAC1 [3] = target: T1, HDAC1; assay: HDAC enzyme inhibition assay (ZMAL substrate), HDAC1; assay type: biochemical; design: purchased BPS Bioscience 50051; conditions: n = 2, mean ± SD
Protocol: (§4) The total assay volume of 50 μL (HDAC2/3/6 max. 1% DMSO; HDAC1 max. 5% DMSO) was incubated at 37°C for 90 min. Subsequently, 50 μL of trypsin (0.4 mg/mL) in trypsin buffer (50 mM Tris−HCl, pH 8.0, 100 mM NaCl) was added, followed by an additional 30 min of incubation at 37°C. Fluorescence (excitation λ = 355 nm, emission λ = 460 nm) was measured using a FLUOstar OPTIMA microplate reader. The IC50 was determined by plotting dose–response curves and performing nonlinear regression using GraphPad Prism.
(§5) The total assay volume of 50 μL (HDAC2/3/6 max. 1% DMSO; HDAC1 max. 5% DMSO) was incubated at 37°C for 90 min. Subsequently, 50 μL of trypsin (0.4 mg/mL) in trypsin buffer (50 mM Tris−HCl, pH 8.0, 100 mM NaCl) was added, followed by additional 30 min of incubation at 37°C. Fluorescence (excitation λ = 355 nm, emission λ = 460 nm) was measured using a FLUOstar OPTIMA microplate reader. The IC50 was determined by plotting dose response curves and performing nonlinear regression using GraphPad Prism.^[3-6]

HDAC3 = target: T3, HDAC3 (Homo sapiens, UniProt O15379); assay: HDAC3 degradation, western blot in MM.1S cells; assay type: cell-based; conditions: MM.1S cells, 1, 10, 25 μM
T3 construct: endogenous in cells; host or cells: MM.1S
T3 sequence (O15379 whole entry): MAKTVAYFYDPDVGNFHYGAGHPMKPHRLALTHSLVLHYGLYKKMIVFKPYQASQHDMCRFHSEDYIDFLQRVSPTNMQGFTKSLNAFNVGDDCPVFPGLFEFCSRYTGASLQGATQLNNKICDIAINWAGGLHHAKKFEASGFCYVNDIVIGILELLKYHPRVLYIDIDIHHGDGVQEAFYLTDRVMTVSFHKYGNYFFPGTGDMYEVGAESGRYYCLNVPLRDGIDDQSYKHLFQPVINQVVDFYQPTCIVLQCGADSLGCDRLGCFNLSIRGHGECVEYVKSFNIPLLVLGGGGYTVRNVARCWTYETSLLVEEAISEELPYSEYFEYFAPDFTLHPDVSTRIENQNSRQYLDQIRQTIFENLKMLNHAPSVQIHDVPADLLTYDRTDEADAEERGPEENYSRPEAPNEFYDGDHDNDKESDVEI
Protocol: as §3, §1
(§6) The MM.1S cells (3 × 10^6 cells/mL) were seeded into cell culture flasks and, after 72 h, treated with the indicated concentration of compound or DMSO for the given time. Cell lysis was performed with Cell Extraction Buffer and the addition of Halt Protease Inhibitor Cocktail and phenylmethanesulfonyl fluoride. Protein content was determined by Pierce BCA Protein Assay Kit. Samples were denatured by Laemmli 2× Concentrate, and Precision Plus Protein Unstained Standard was used as a molecular weight marker in all cases. […] The ChemiDoc XRS+ System was used for detection, and Image Lab Software 6.1 (Bio‐Rad, Hercules, CA, USA) for quantification.

MM.1S cells [4] = assay: Annexin V-FITC/PI apoptosis assay, flow cytometry; assay type: cell-based; conditions: 10 μM, 48 h
Protocol: The percentage of cells that were annexin V‐positive but PI‐negative was considered as early apoptotic, whereas the percentage of cells that were both annexin V‐ and PI‐positive was considered as late apoptotic. Data are presented as mean ± standard deviation (n = 2 biological replicates, each performed in duplicates). Statistical analysis was performed by using one‐way ANOVA in GraphPad Prism 8. Statistical significance was indicated with asterisks (****p ≤ 0.0001).
MM.1S cells (3 × 10^5 cells/well) were seeded in 24‐well plates and treated with the indicated concentration of compound or DMSO for 48 h under cell culture conditions. Subsequently, cells were washed with cell staining buffer (HEPES 0.1 M, NaCl 1.4 M, CaCl2·3H2O 25 mM), resuspended in 300 µL, and 150 µL was transferred in a 96‐well plate.

HDAC4 = target: T4, HDAC4 (Homo sapiens, UniProt P56524); assay: HDAC4 degradation, western blot in MM.1S cells; assay type: cell-based; conditions: MM.1S cells, 1, 10, 25 μM
T4 construct: HDAC2, HDAC3, and HDAC4 levels were detected by immunoblot analysis; endogenous in cells; host or cells: MM.1S
T4 sequence (P56524 whole entry): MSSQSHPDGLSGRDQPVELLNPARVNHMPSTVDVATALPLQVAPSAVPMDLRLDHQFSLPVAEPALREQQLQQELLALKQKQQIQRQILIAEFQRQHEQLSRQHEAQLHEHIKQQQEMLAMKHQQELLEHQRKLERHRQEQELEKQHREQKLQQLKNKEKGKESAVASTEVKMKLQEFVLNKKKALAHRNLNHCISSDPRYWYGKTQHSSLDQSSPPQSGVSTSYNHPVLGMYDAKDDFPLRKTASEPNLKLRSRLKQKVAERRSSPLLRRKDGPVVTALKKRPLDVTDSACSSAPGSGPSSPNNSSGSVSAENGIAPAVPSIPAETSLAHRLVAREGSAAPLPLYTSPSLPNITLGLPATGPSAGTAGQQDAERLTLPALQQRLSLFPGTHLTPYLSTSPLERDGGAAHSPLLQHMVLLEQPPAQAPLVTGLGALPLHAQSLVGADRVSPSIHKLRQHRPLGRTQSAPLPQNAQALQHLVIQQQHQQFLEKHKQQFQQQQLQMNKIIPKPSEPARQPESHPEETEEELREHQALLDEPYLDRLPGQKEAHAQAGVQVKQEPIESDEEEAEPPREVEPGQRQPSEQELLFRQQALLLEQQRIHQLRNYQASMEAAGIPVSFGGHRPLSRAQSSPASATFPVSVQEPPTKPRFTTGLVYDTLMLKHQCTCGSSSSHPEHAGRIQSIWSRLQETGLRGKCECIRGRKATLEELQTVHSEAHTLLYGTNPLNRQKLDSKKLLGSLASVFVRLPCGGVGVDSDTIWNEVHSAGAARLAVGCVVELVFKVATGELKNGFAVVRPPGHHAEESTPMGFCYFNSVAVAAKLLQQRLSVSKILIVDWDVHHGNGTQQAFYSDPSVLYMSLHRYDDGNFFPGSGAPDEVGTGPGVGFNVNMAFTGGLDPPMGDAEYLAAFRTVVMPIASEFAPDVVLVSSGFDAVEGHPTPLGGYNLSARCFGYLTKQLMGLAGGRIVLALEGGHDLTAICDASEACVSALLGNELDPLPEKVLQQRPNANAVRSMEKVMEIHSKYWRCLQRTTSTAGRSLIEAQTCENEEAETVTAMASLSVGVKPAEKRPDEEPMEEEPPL
Protocol: as §3, §1, §6

[5] = tested on: acetylated α‐tubulin (marker of decreased HDAC6 activity); assay: Cellular target engagement: immunoblot of acetylated α-tubulin; assay type: cell-based; conditions: MM.1S cells, 10 µM, 24 h
Protocol: (§7) Immunoblot analysis of acetylated histone H3 (A) and α‐tubulin (B) in MM.1S cell lysates after treatment with the indicated compounds (10 µM) or vehicle (DMSO) for 24 h. Representative images from a total of n = 2 replicates.
as §2, with “agitation. Subsequently, the membranes were incubated with anti‐HDAC1 (Catalog# 5356S, Cell Signaling Technology, Denver, MA, USA), anti‐HDAC2 (Catalog# 9959S, Cell Signaling Technology, Denver, MA, USA), anti‐HDAC3 (Catalog# 85057S, Cell Signaling Technology, Denver, MA, USA), anti‐HDAC4 (Catalog# 7628S, Cell Signaling Technology, Denver, MA, USA), anti‐HDAC6 (Catalog# 7558S, Cell Signaling Technology, Denver, MA, USA), anti‐acetyl‐histone H3 (Catalog# 9677S, Cell Signaling Technology, Denver, MA, USA), anti‐acetyl‐α‐tubulin (Catalog# 5335, Cell Signaling Technology, Denver, MA, USA), or anti‐GAPDH (Catalog# T0004, Affinity Biosciences, Cincinnati, OH, USA) antibody solutions in 1:1000–1:20000 dilutions at room temperature under slight agitation for 1 h, then put membranes at 4°C for overnight.” for “agitation.”

Human recombinant HDAC6 = target: T5, Human recombinant HDAC6 (Homo sapiens, UniProt Q9UBN7); assay: HDAC enzyme inhibition assay (ZMAL substrate), HDAC6; assay type: biochemical; conditions: n = 2, mean ± SD
T5 construct: purchased BPS Bioscience 50006
T5 sequence (Q9UBN7 1-1215): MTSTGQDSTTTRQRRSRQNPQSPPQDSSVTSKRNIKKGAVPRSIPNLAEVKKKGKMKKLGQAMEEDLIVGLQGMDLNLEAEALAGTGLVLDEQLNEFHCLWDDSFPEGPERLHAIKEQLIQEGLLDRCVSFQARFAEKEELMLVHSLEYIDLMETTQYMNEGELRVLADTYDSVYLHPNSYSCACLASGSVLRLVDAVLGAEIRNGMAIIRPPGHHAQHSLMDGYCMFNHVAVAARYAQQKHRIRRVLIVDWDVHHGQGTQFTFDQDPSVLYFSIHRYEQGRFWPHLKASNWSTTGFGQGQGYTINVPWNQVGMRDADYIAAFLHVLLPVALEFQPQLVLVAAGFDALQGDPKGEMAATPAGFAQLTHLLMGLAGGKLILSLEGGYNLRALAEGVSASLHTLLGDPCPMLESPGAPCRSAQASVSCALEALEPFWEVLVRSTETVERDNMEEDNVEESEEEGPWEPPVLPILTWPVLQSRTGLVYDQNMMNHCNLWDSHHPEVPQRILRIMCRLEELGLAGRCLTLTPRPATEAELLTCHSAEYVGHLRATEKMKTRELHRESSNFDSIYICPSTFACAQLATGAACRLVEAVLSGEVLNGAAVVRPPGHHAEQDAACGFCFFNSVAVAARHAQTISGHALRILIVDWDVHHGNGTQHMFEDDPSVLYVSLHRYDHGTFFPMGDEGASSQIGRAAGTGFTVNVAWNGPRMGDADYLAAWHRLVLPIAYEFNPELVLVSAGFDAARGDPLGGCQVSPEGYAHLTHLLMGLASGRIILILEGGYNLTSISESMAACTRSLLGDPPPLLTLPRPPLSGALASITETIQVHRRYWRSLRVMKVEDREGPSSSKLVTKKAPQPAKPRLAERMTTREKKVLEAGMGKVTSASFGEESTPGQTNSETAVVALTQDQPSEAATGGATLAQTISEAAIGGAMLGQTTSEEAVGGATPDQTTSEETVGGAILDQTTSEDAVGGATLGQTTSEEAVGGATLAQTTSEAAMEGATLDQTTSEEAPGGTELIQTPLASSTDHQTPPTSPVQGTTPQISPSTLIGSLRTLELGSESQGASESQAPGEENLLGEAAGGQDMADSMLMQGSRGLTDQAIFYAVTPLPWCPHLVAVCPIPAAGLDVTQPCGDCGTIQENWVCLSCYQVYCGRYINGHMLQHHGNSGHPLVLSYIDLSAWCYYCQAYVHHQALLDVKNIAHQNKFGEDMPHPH
Protocol: as §4, §5

MM.1S cells [6] = assay: CellTiter-Glo cell viability assay; assay type: cell-based; conditions: Homo sapiens, MM1.S, 72 h, read-out: IC50 cell viability
Protocol: The MM.1S was obtained from ATCC (Manassas, VA, USA).
For this purpose, the dilution series was prepared at 200× concentration in DMSO and then further diluted to 10× concentration in medium. The final DMSO concentration was 0.5%. The toxicity of compounds was assessed after 72 h using the CellTiter‐Glo 2.0 cell viability assay. Luminescence was then measured, and the IC50 was determined by plotting dose–response curves and performing nonlinear regression using GraphPad Prism.
For this purpose, the dilution series were prepared at 200× concentration in DMSO and then further diluted to 10× concentration in medium. The final DMSO concentration was 0.5%. The toxicity of compounds was assessed after 72 h using the CellTiter-Glo 2.0 cell viability assay. Luminescence was then measured, and the IC50 was determined by plotting dose-response curves and performing nonlinear regression using GraphPad Prism.^[1]

[7] = tested on: acetylated histone H3 (indicator of reduced HDAC1‐3 activity); assay: Cellular target engagement: immunoblot of acetylated histone H3; assay type: cell-based; conditions: MM.1S cells, 10 µM, 24 h
Protocol: as §7
as §2, with “agitation. Subsequently, the membranes were incubated with anti‐HDAC1 (Catalog# 5356S, Cell Signaling Technology, Denver, MA, USA), anti‐HDAC2 (Catalog# 9959S, Cell Signaling Technology, Denver, MA, USA), anti‐HDAC3 (Catalog# 85057S, Cell Signaling Technology, Denver, MA, USA), anti‐HDAC4 (Catalog# 7628S, Cell Signaling Technology, Denver, MA, USA), anti‐HDAC6 (Catalog# 7558S, Cell Signaling Technology, Denver, MA, USA), anti‐acetyl‐histone H3 (Catalog# 9677S, Cell Signaling Technology, Denver, MA, USA), anti‐acetyl‐α‐tubulin (Catalog# 5335, Cell Signaling Technology, Denver, MA, USA), or anti‐GAPDH (Catalog# T0004, Affinity Biosciences, Cincinnati, OH, USA) antibody solutions in 1:1000–1:20000 dilutions at room temperature under slight agitation for 1 h, then put membranes at 4°C for overnight.” for “agitation.”

[8] = target: T6, Human recombinant HDAC3/NcoR2 (Homo sapiens, UniProt O15379); assay: HDAC enzyme inhibition assay (ZMAL substrate), HDAC3; assay type: biochemical; conditions: n = 2, mean ± SD
T6 construct: purchased BPS Bioscience 50003
T6 sequence (O15379 whole entry): as the sequence (O15379 whole entry) above
T6 sequence (Q9Y618 395-489 partner limits assumed): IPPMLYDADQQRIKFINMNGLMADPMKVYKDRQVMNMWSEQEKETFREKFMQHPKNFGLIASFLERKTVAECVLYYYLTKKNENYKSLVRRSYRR
Protocol: as §4, §5

HDAC2 [9] = target: T2, HDAC2; assay: HDAC enzyme inhibition assay (ZMAL substrate), HDAC2; assay type: biochemical; design: purchased BPS Bioscience 50052; conditions: n = 2, mean ± SD
Protocol: as §4, §5

T1 sequence (Q13547 whole entry): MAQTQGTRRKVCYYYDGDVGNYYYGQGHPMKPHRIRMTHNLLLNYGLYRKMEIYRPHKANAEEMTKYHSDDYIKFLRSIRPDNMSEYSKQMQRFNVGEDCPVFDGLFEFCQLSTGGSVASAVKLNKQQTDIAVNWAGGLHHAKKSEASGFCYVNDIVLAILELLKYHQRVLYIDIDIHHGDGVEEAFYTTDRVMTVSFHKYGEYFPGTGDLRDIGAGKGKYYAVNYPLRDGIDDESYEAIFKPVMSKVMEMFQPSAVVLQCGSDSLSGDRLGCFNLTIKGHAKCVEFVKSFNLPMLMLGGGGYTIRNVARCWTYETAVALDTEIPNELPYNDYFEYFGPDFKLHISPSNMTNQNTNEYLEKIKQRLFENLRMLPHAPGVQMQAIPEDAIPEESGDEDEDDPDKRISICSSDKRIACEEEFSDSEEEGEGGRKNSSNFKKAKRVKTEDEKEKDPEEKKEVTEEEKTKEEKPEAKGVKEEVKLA

C=CS(=O)(=O)N1CCN(C(=O)Cc2ccc(NC(=O)CCCCCCC(=O)NO)cc2)CC1 [Compound 10a, N ^1‐Hydroxy‐N ^8‐(4‐{2‐oxo‐2‐[4‐(vinylsulfonyl)piperazin‐1‐yl]ethyl}phenyl)octanediamide]
HDAC1 protein levels (HDAC1 [1]; 25 μM, immunoblot): induced a reduction of HDAC1 protein levels | DC50 (HDAC1 [1]; 0.37 up to 30 μM, western blot, read-out: half-maximal degradation concentration (DC50) for HDAC1): 8800 ± 4400 nM | Dmax at 25 µM (HDAC1 [1]; MM1.S, 25 μM, western blot, read-out: maximal degradation (Dmax) of HDAC1): 74% | Dmax at 25 µM (HDAC2 [2]; MM1.S, MM.1S cells, 25 μM, 24 h, read-out: maximal degradation (Dmax) of HDAC2): 46% | HDAC2 degradation (HDAC2 [2]; MM.1S cells, 1, 10, 25 μM, 6 h): none of the used concentrations resulted in the degradation | HDAC2 protein levels (HDAC2 [2]; MM.1S cells, 1, 10, 25 μM, 24 h): slightly affected | IC50 (HDAC1 [3]): 17 ± 1 nM | HDAC3 degradation (HDAC3; 6 h): none of the used concentrations resulted in the degradation | HDAC3 protein levels (HDAC3; 24 h): minimal impact | apoptosis induction: proportions of early and late apoptotic cells (MM.1S cells [4]): markedly increased | HDAC4 degradation (HDAC4; 6 h): none of the used concentrations resulted in the degradation | HDAC4 protein levels (HDAC4; 24 h): minimal impact | hyperacetylation of α-tubulin compared with vorinostat [5]: comparable to its parent inhibitor, vorinostat | level of acetylated α-tubulin [5]: pronounced upregulation | IC50 (Human recombinant HDAC6): 27 ± 8 nM | IC50 (MM.1S cells [6]; MM.1S cells, CellTiter-Glo, n = 3, mean ± SD): 6480 ± 1180 nM | effect on histone H3 acetylation compared with vorinostat [7]: markedly lower than that of vorinostat | level of acetylated histone H3 [7]: pronounced upregulation | IC50 [8]: 51 ± 4 nM | IC50 (HDAC2 [9]): 88 ± 7 nM

C=CS(=O)(=O)N1CCNCC1 [Compound 8, 1‐(Vinylsulfonyl)piperazine, reference compound]
level of acetylated α-tubulin [5]: no effects | level of acetylated histone H3 [7]: no effects

O=C(CCCCCCNC(=O)c1cnc(N(c2ccccc2)c2ccccc2)nc1)NO [Ricolinostat]
IC50 (MM.1S cells [6]): 2590 ± 270 nM
